Experimental data as given in patent publication US20220202859A1, “CANCER TREATMENT USING CD38 INHIBITOR AND/OR LENALIDOMIDE AND T-CELLS EXPRESSING A CHIMERIC ANTIGEN RECEPTOR” (CRISPR THERAPEUTICS AG, priority 2020, published 2022).

T1: mouse BCMA (mouse, UniProt O88472 1-49, limits assumed)
T1 construct: also called murine BCMA
T1 chain (looked up): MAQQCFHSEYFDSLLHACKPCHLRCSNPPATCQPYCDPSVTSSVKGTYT

T2: biotinylated recombinant human BCMA (Acro Biosystems Cat: #BC7-H82F0) (human, UniProt Q02223 1-54, biotinylated)
T2 construct: Bought reagent
T2 sequence (looked up): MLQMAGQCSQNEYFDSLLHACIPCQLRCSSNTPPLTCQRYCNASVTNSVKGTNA


Experiments:
PBMCs = assay: MLR assay (mixed lymphocyte reaction) with Lenalidomide; format: cell-based, human
Experimental: Next, allo-reactivity towards edited T cells (B2M^neg/TCR^neg) was tested using an MLR assay (mixed lymphocyte reaction). In this assay PBMCs (“responder cells”) were mixed with irradiated auto or allo T cells (“stimulator cells”). At the end of the assay, the activation of the responder cells was evaluated by measuring the cell proliferation in the co-culture, with cell proliferation serving as a proxy for immune activation. In the assay shown in FIG. 19C, both auto (donor 1) & allo (donor 2 & 3) were evaluated for immune activation following co-culture. […] As expected, immune activation was reduced upon deletion of B2M & TRAC from the T cells, as evident by the reduced proliferation in both donors tested.

MM.1S tumors = assay: Lenalidomide plus anti-BCMA CAR-T cells in MM.1S subcutaneous tumor model; conditions: single arm: 3 million CAR-T cells, or Lenalidomide 1.5 or 10 mg/kg
NK cells [1] = assay: Cytokine secretion in co-culture of NK cells with B2Mneg T cells with Lenalidomide; format: cell-based, human
Experimental: (§1) Additionally, cytokine secretion was tested at the end of the co-culture described above, following co-culture of NK cells with B2M^neg T cells, K562 cells (a B2M^neg cell line, commonly used as a positive control for activation of NK cells due to lack of B2M expression), and unedited T cells (used as a negative control for NK cells activation).

NK cells [2] = assay: NK cytotoxicity towards B2Mneg T cells with Lenalidomide; format: cell-based, human; conditions: overnight co-culture; wide range of Lenalidomide concentrations
Experimental: Two modes of allogenic immune recognition were tested: immune recognition of B2M^neg cells by NK cells, and immune recognition by allogenic T cells. Examination of the cytotoxic activity of NK cells towards B2M^neg cells was tested following overnight (ON) co-culture in varying concentrations of NK to T cells, and varying concentrations of Lenalidomide. Increasing concentration of NK to B2M^neg T cells led to an increase in the cytotoxic activity of NK cells towards B2M^neg T cells.

[3] = lenalidomide-treated subjects; prescribing information; cited from earlier work
anti-BCMA CAR-T cells [4] = assay: Impact of Lenalidomide on editing efficiency and CD4/CD8 ratio of CAR-T cells; format: cell-based, human; conditions: day 8
Experimental: Editing efficiency, including TRAC−%, B2M−% and CAR+% were assessed at day 7/8 and/or day 13/14 with anti-BCMA CAR-T cells. […] Anti-BCMA CAR-T cells were not harvested around day 14 due to slower growth rate. About 51-58% of CAR+%, 96% TRAC−% and 75-77% of B2M−% were detected from anti-BCMA CAR-T cells with or without Lenalidomide treatment.
CD4% and CD8% were assessed at day 7/8 and/or day 13/14 with the anti-BCMA CAR-T cells disclosed above. […] The anti-BCMA CAR-T cells were not assessed and harvested around day 14 due to slower expansion. Compared with Lenalidomide untreated anti-BCMA CAR-T cells, there was dose-dependent increase of CD8 positive cells, ranging from 7-15%. […] Expansion scale (small or medium) didn't impact the CD4 and CD8 phonotype.

anti-BCMA CAR-T cells [5] = assay: Lenalidomide on in vitro expansion and senescence (CD57) of anti-BCMA CAR-T cells
anti-BCMA CAR-T cells [6] = assay: Cytokine secretion of CAR-T cells produced in the presence of Lenalidomide, co-culture with JeKo-1; format: cell-based, human; conditions: Lenalidomide 0.5, 2 & 10 uM during ~10 day production; JeKo-1 at 0.5:1 effector to target, no Lenalidomide in assay
Experimental: PBMCs were thawed and activated by T cell activation agents to enrich for T cells. After 3 days, T cells were edited for B2M and TRAC knock-out using a CRISPR/Cas gene editing system. An anti-BCMA expression cassette (as an exemplary CAR construct) was knocked into the TRAC locus to produce anti-BCMA CAR-T cells. Following the editing procedure, resulting T cells were expanded in the presence of absence of Lenalidomide in a concentration of 0.5, 2, & 10 uM for approximately 10 days. The resulting cells were later evaluated for cytokine secretion following antigen stimulation, in the absence of Lenalidomide.
The inclusion of Lenalidomide […] led to enhanced cytokine secretion of multiple effector cytokines, among them IFN-γ and TNF-α, upon CAR-T engagement by the BCMA expressing target cell line (FIG. 20).

anti-BCMA CAR-T cells [7] = assay: Lenalidomide on cytokine secretion of anti-BCMA CAR-T cells co-cultured with JeKo-1; format: cell-based, human; conditions: overnight culture with JeKo-1, 2:1 effector to target; all concentrations tested
Text: Addition of Lenalidomide to the co-culture media led to enhanced cytokine secretion of multiple effector cytokines, among them IFN-γ and TNF-α following CAR-T cell engagement by the BCMA expressing target cell line (FIG. 1C).

NK cells [8] = assay: Cytokine secretion in co-culture of NK cells with K562 cells with Lenalidomide; format: cell-based, human
Experimental: as §1

mouse BCMA = biological target: T1, mouse BCMA; assay: not described (statement in Example 5)
[9] = biological target: T2, biotinylated recombinant human BCMA …; assay: flow cytometry of CTX120 cells, detection of the surface CAR with biotinylated BCMA and fluorescent streptavidin

Molecule | proliferation upon allo co-culture with edited T cells (PBMCs; edited (B2Mneg/TCRneg) stimulator T cells) | allo reactivity towards unedited T cells (PBMCs; unedited stimulator T cells, donor 2) | effect on tumor regression and mouse survival compared to no treatment arm (MM.1S tumors) | cytokine secretion (NK cells [1]) | NK cell killing of B2Mneg T cells (NK cells [2]) | grade 3 or 4 neutropenia [3] | grade 3 or 4 thrombocytopenia [3] | overall distribution of CD4 and CD8 cells (anti-BCMA CAR-T cells [4]) | dose-dependent increase of CD8 positive cells (anti-BCMA CAR-T cells [4]; compared with Lenalidomide untreated cells) | higher expansion of anti-BCMA CAR-T cells (anti-BCMA CAR-T cells [5]; 0.5 uM to 10 uM Lenalidomide) | senescence marker CD57 expression (anti-BCMA CAR-T cells [5]; all tested concentrations, 10 day culture) | effector cytokine secretion upon antigen stimulation (anti-BCMA CAR-T cells [6]) | effector cytokine secretion upon antigen stimulation (anti-BCMA CAR-T cells [7]) | cytokine secretion (NK cells [8]) | binding result (mouse BCMA) | binding result [9]
Nc1cccc2c1CN(C1CCC(=O)NC1=O)C2=O (stereo not shown) [Lenalidomide] | minimal changes upon addition of Lenalidomide to the co-culture | may in some cases enhance allo reactivity towards unedited T cells | minimal effect on both tumor regression and mouse survival | minimal changes were observed upon addition of Lenalidomide | did not lead to an increased cell killing of the B2M^neg T cells | up to 59% | up to 38% | not significantly altered | 7-15% | 5-30 fold | reduced expression of CD57 | enhance effector cytokine secretion upon antigen stimulation | enhanced effector cytokine secretion upon antigen stimulation | Upregulation of secretion of several cytokines | – | –
anti-BCMA CAR (CTX-166b) expressed on CTX120 cells (other, also called CTX120 anti-BCMA CAR; CTX120 CAR) QVQLVQSGAELKKPGASVKVSCKASGNTLTNYVIHWVRQAPGQRLEWMGYILPYNDLTKYSQKFQGRVTITRDKSASTAYMELSSLRSEDTAVYYCTRWDWDGFFDPWGQGTTVTVSSGGGGSGGGGSGGGGSEIVMTQSPATLSVSPGERASISCRASQSLVHSNGNTHLHWYQQRPGQAPRLLIYSVSNRFSEVPARFSGSGSGTDFTLTISSVESEDFAVYYCSQTSHIPYTFGGGTKLEIKSAAAFVPVFLPAKPTTTPAPRPPTPAPTIASQPLSLRPEACRPAAGGAVHTRGLDFACDIYIWAPLAGTCGVLLLSLVITLYCNHRNRKRGRKKLLYIFKQPFMRPVQTTQEEDGCSCRFPEEEEGGCELRVKFSRSADAPAYQQGQNQLYNELNLGRREEYDVLDKRRGRDPEMGGKPRRKNPQEGLYNELQKDKMAEAYSEIGMKGERRRGKGHDGLYQGLSTATKDTYDALHMQALPPR | – | – | – | – | – | – | – | – | – | – | – | – | – | – | no binding | binds
